Test results taken from patent publication US9499553B2 (CHUGAI SEIYAKU KABUSHIKI KAISHA, priority 2013, dated 2016).
Structures can show the parent of a compound that is named as a salt.

Columns and labels:
Assay type in all cases: cell-based
human NaPi-IIb = target: T1, human NaPi-IIb (Homo sapiens, UniProt O95436); assay: Inhibitory effect on 33PO4 uptake into human NaPi-IIb-expressing CHO cells; conditions: read-out: IC50
T1 construct: expressed in transfected cells
T1 sequence (O95436 1-690): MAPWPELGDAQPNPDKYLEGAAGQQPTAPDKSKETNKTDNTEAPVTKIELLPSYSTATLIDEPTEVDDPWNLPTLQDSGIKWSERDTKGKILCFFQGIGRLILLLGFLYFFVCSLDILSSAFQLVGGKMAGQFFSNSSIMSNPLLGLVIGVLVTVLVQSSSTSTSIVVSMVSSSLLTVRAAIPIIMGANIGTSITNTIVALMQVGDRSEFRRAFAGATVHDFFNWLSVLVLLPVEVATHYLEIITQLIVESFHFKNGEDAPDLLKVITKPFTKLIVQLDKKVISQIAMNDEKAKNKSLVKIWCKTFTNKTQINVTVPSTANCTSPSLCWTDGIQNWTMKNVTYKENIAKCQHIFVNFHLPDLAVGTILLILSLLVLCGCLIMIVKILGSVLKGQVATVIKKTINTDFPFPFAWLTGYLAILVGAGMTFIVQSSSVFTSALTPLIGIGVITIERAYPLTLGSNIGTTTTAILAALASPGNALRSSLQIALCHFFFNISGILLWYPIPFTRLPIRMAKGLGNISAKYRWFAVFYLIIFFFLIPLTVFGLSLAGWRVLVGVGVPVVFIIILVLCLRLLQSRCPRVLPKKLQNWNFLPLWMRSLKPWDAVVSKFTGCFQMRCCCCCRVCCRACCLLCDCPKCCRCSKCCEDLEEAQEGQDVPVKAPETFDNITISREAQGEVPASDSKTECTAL
In short: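 Uptake of ³³PO4 was measured by scintillation counting after ice-cold buffer A washes. Cells were CHO stably expressing human NaPi-IIb, seeded overnight, and exposed to ³³PO4 in buffer A at room temperature.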

human PiT-1 = target: T2, human PiT-1 (Homo sapiens, UniProt Q8WUM9); assay: Inhibitory effect on 33PO4 uptake into human PiT-1-expressing CHO cells; conditions: compound 0.24, 1.2, 6 or 30 μM, pH 6.5, read-out: IC50 against 33PO4 uptake into human PiT-1-expressing cells
T2 construct: expressed in transfected cells; host or cells: CHO cells
T2 sequence (Q8WUM9 1-679): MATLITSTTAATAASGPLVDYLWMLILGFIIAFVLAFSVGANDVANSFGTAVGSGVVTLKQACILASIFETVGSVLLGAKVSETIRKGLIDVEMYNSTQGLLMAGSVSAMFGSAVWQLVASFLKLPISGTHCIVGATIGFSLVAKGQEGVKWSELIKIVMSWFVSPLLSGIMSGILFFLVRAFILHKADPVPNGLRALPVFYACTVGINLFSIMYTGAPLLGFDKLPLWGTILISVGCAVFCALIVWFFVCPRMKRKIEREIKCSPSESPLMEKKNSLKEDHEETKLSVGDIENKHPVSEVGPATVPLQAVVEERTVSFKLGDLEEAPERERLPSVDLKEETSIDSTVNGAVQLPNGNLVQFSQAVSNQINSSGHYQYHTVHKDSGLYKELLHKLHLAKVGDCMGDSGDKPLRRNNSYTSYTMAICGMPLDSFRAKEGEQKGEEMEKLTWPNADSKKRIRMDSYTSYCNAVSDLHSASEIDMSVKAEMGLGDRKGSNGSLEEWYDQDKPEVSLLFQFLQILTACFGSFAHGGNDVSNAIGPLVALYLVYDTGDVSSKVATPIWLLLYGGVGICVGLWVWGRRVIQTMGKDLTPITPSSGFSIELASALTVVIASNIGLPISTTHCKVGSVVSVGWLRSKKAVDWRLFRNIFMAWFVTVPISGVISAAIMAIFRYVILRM
Method: Test Example 3: Inhibitory Effect on ^33PO4 Uptake into Human PiT-1-Expressing Cell
(§1) CHO cells were transfected with human PiT-1 expression plasmids or empty vectors to prepare human PiT-1-expressing cells and empty vector-expressing cells. The human PiT-1-expressing cells or the empty vector-expressing cells were inoculated to a 96-well plate and incubated overnight in a CO2 incubator. […] After a given time, a 1/20 volume of buffer A containing ^33PO4 was added thereto and reacted at room temperature. After washing with ice-cold buffer A, a liquid scintillator was added to each reaction mixture, and the amount of ^33PO4 uptake was measured using TopCount. The rate of inhibition was determined according to the following expression: Rate (%) of inhibition=(1−(Amount of ^33PO4 uptake in the compound-supplemented well containing the human PiT-1-expressing cells−Amount of ^33PO4 uptake in the compound-supplemented well containing the empty vector-expressing cells)/(Amount of ^33PO4 uptake in the DMSO-supplemented well containing the human PiT-1-expressing cells −Amount of ^33PO4 uptake in the DMSO-supplemented well containing the empty vector-expressing cells))×100

human PiT-2 = target: T3, human PiT-2 (Homo sapiens, UniProt Q08357); assay: Inhibitory effect on 33PO4 uptake into human PiT-2-expressing CHO cells; conditions: pH 6.5, read-out: IC50 against 33PO4 uptake into human PiT-2-expressing cells
T3 construct: expressed in transfected cells; host or cells: CHO cells
T3 sequence (Q08357 1-652): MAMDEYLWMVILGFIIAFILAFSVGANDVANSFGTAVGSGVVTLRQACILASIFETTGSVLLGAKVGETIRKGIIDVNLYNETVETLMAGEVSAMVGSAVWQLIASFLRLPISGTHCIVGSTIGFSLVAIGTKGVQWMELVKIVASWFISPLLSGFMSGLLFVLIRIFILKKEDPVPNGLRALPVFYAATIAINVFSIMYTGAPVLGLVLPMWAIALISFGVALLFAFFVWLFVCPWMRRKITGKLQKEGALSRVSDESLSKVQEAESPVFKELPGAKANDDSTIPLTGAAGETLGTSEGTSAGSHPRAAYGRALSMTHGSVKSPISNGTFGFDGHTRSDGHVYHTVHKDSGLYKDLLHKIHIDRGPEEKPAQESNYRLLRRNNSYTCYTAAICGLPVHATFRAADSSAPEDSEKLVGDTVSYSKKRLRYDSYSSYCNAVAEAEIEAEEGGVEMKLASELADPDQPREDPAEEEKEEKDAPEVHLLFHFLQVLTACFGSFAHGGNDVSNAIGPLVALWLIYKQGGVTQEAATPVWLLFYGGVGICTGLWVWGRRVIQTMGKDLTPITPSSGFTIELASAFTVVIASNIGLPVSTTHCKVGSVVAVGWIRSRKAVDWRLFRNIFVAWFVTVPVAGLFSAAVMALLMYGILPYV
Method: Test Example 4: Inhibitory Effect on ^33PO4 Uptake into Human PiT-2-Expressing Cell
as §1, with “PiT-2” for “PiT-1”, “PiT-2-expressing” for “PiT-1-expressing”

SMILES | IC50 (human NaPi-IIb) [µM] | IC50 (human PiT-1) [µM] | IC50 (human PiT-2) [µM]
COCCN(C)CCOc1ccc(CN2C(=O)C(C(=O)Nc3ccc(C(F)(F)F)cc3-c3cc(C(F)(F)F)ncn3)=C(O)C3(CCC3)N2C)c(F)c1F [Example 13, 6-[[2,3-Difluoro-4-[2-[2-methoxyethyl(methyl)amino]ethoxy]phenyl]methyl]-9-hydroxy-5-methyl-7-oxo-N-[4-(trifluoromethyl)-2-[6-(trifluoromethyl)pyrimidin-4-yl]phenyl]-5,6-diazaspiro[3.5]non-8-ene-8-carboxamide] | 7.3 | 1.9 | 2.7
Cc1c(C#N)ncnc1-c1cc(C(F)(F)F)ccc1NC(=O)C1=C(O)[C@@]2(C)CCCN2N(Cc2ccc(OCCN3CCOCC3)c(F)c2F)C1=O [Example 22, (4aR)-N-[2-(6-Cyano-5-methylpyrimidin-4-yl)-4-(trifluoromethyl)phenyl]-1-[[2,3-difluoro-4-(2-morpholin-4-ylethoxy)phenyl]methyl]-4-hydroxy-4a-methyl-2-oxo-6,7-dihydro-5H-pyrrolo [1,2-b]pyridazine-3-carboxamide] | 7.9 | – | 3.2
C[C@]12CCCN1N(Cc1ccc(C#CCCCC(=O)O)c(F)c1F)C(=O)C(C(=O)Nc1ccc(C(F)(F)F)cc1-c1cc(C(F)(F)F)ncn1)=C2O [Example 129, 6-[4-[[(4aR)-4-Hydroxy-4a-methyl-2-oxo-3-[[4-(trifluoromethyl)-2-[6-(trifluoromethyl)pyrimidin-4-yl]phenyl]carbamoyl]-6,7-dihydro-5H-pyrrolo[1,2-b]pyridazin-1-yl]methyl]-2,3-difluorophenyl]hex-5-ynoic acid] | 13.7 | 6.5 | 8.7
C[C@]12CCCN1N(Cc1ccc(C#CCN3CCOCC3)c(F)c1F)C(=O)C(C(=O)Nc1ccc(C(F)(F)F)cc1-c1ccc(C(F)(F)F)nc1)=C2O [Example 140, (4aR)-1-[[2,3-Difluoro-4-(3-morpholin-4-ylprop-1-ynyl)phenyl]methyl]-4-hydroxy-4a-methyl-2-oxo-N-[4-(trifluoromethyl)-2-[6-(tri-fluoromethyl)pyridin-3-yl]phenyl]-6,7-dihydro-5H-pyrrolo[1,2-b]pyridazine-3-carboxamide] | 16.2 | 3.8 | 3.8
C[C@]12CCCN1N(Cc1ccc(OCCCOC[C@H](O)CO)c(F)c1F)C(=O)C(C(=O)Nc1ccc(C(F)(F)F)cc1-c1ccc(C(F)(F)F)nc1)=C2O [Example 147, (4aR)-1-[[4-[3-[(2R)-2,3-Dihydroxypropoxy)propoxy]-2,3-difluorophenyl]methyl]-4-hydroxy-4a-methyl-2-oxo-N-[4-(trifluoromethyl)-2-[6-(trifluoromethyl)pyridin-3-yl]phenyl]-6,7-dihydro-5H-pyrrolo [1,2-b]pyridazine-3-carboxamide] | 21.5 | 4.4 | 8.4
C[C@]12CCCN1N(Cc1ccc(OCCCCOC[C@H](O)CO)c(F)c1F)C(=O)C(C(=O)Nc1ccc(C(F)(F)F)cc1-c1cc(C(F)(F)F)ncn1)=C2O [Example 152, (4aR)-1-[[4-[4-[(2R)-2,3-Dihydroxypropoxy]butoxy]-2,3-difluorophenyl]methyl]-4-hydroxy-4a-methyl-2-oxo-N-[4-(trifluoromethyl)-2-[6-(trifluoromethyl)pyrimidin-4-yl]phenyl]-6,7-dihydro-5H-pyrrolo [1,2-b]pyridazine-3-carboxamide] | 20.6 | 5.3 | 3.5
C[C@]12CCCN1N(Cc1ccc(OCCCCCCOC[C@H](O)CO)c(F)c1F)C(=O)C(C(=O)Nc1cnc(C(F)(F)F)nc1-c1ccc(C(F)(F)F)nc1)=C2O [Example 156, (4aR)-1-[[4-[6-[(2R)-2,3-Dihydroxypropoxy]hexoxy]-2,3-difluorophenyl]methyl]-4-hydroxy-4a-methyl-2-oxo-N-[2-(trifluoromethyl)-4-[6-(trifluoromethyl)pyridin-3-yl]pyrimidin-5-yl]-6,7-dihydro-5H-pyrrolo[1,2-b]pyridazine-3-carboxamide] | 3.2 | 3.9 | 7.2
C[C@]12CCCN1N(Cc1ccc(OCCN3CCOCC3)c(F)c1F)C(=O)C(C(=O)Nc1ccc(C(F)(F)F)cc1-c1cc(C(F)(F)F)ncn1)=C2O [Example 157, (4aR)-1-[[2,3-Difluoro-4-(2-morpholin-4-ylethoxy)phenyl]methyl]-4-hydroxy-4a-methyl-2-oxo-N-[4-(trifluoromethyl)-2-[6-(trifluoromethyl)pyrimidin-4-yl]phenyl]-6,7-dihydro-5H-pyrrolo [1,2-b]pyridazine-3-carboxamide] | 19.1 | 3.8 | 3.9
C[C@]12CCCN1N(Cc1ccc(CN3CCOCC3)c(F)c1F)C(=O)C(C(=O)Nc1ccc(C(F)(F)F)cc1-c1ccc(C(F)(F)F)nc1)=C2O [Example 164, (4aR)-1-[[2,3-Difluoro-4-(morpholin-4-ylmethyl)phenyl]methyl]-4-hydroxy-4a-methyl-2-oxo-N-[4-(trifluoromethyl)-2-[6-(trifluoromethyl)pyridin-3-yl]phenyl]-6,7-dihydro-5H-pyrrolo [1,2-b]pyridazine-3-carboxamide; hydrochloride] | 5 | 4.1 | 4.1
